{
  "source": "patent EP3431088A1",
  "about": "“MNTBAP FOR USE IN INDUCING A TRANSIENT IMMUNE TOLERANCE” (priority 2017, dated 2019)",
  "key": {"[1]": {"tested_on": "splenic T-lymphocyte subsets", "assay": "Absolute numbers of splenic T-lymphocyte subsets by flow cytometry", "type": "in vivo, mice", "conditions": "15 days post first injection, after gene transfer, vs PBS", "procedure": "MnTBAP (Calbiochem, San Diego, USA or Enzo Life Sciences, Farmingdale, USA) is dissolved in 75 mM NaOH to constitute a 20 mM stock solution. MnTBAP is dissolved in the complete medium, used for in vitro treatment, containing RPMI-1640 supplemented with 10% heat-inactivated fetal calf serum, 100 U/ml penicillin/streptomycin, 2 mM glutamax and 50 µM β-mercaptoethanol β-ME). Hypertonic medium, used to block clathrin dependent endocytosis, is complete medium supplemented with 0.45 M sucrose. For in vivo treatment, the stock solution is diluted with PBS and administered at 80 mg/kg intraperitoneally daily during five days. Control animals are injected with equivalent volume of PBS.\nIntramuscular (IM) injection: Two hours post first intraperitoneal (IP) injection of MnTBAP, mice are anesthetized by IP injection of xylazine (10 mg/kg) and ketamine (100 mg/kg) and 25 µl of a rAAV2/1 CMV SGCA HY viral preparation containing 2.5.10^9 vg is injected in the left tibialis anterior muscle (TA). Controls are injected with PBS. Mice are sacrificed 15 days after vector injection and the injected muscles are harvested to perform histologic analysis. Spleens are harvested to analyze transgene-specific T cell response.\nAfter mechanic disruption of the spleen, erythrocytes are eliminated by hypotonic shock with ammonium chloride potassium (ACK) lysing buffer. […]"}, "clathrin and CD4": {"tested_on": "clathrin and CD4", "assay": "Immunofluorescence confocal microscopy, anti-CD4 and anti-clathrin", "type": "cell-based", "conditions": "murine splenic enriched CD4+ T cells, 2 hours, 400 µM, vs non-treated", "procedure": "After culture in complete medium with or without MnTBAP at 400 µM, murine splenic CD4^+ T cells are collected and subjected to immunostaining as previously described (T. M. Neildez-Nguyen et al., Immunology 144, 431. 2015). Briefly, after adhesion on poly-L-lysine-coated slides (Thermo Fisher Scientific), cells are fixed in 4% paraformaldehyde for 5 minutes at 4°C and for 10 minutes at room temperature, and permeabilized with methanol for 6 minutes at -20°C. Cells are stained overnight with rat anti-mouse CD4-APC (BD Biosciences) and rabbit anti-mouse clathrin (Abcam, Paris, France) antibodies, and then with the goat anti-rabbit Alexa Fluor 488 secondary antibody (Invitrogen, Carlsbad, USA) for 30 minutes at room temperature. Negative controls are performed with the corresponding isotype controls of primary antibodies used (BD Biosciences and Abcam). The slides are mounted with Fluoromount/Dapi (SouthernBiotech, Montrouge, France). Images are acquired with confocal-laser-scanning microscope (Leica Microsystems, Nanterre, France)."}, "injected TA muscle": {"tested_on": "injected TA muscle", "assay": "IM rAAV gene transfer: histology and RT-PCR of injected TA muscle", "type": "in vivo, C57BL/6 mice", "conditions": "fifteen days post IM rAAV1 vector injection"}, "[2]": {"conditions": "injected TA, vs non-treated control groups"}},
  "data": [
    {"molecule": "O=C(O)c1ccc(-c2c3nc(c(-c4ccc(C(=O)O)cc4)c4ccc([n-]4)c(-c4ccc(C(=O)O)cc4)c4nc(c(-c5ccc(C(=O)O)cc5)c5ccc2[n-]5)C=C4)C=C3)cc1.[Mn+3]", "note": "[MnTBAP, manganese [III] tetrakis (4-benzoic acid) porphyrin]", "values": [
      {"measurement": "absolute number of splenic CD4^+ T cells", "setting": "[1]", "value": "significant decrease in the absolute number"},
      {"measurement": "absolute number of splenic CD8^+ T cells", "setting": "[1]", "value": "significant decrease in the absolute number"},
      {"measurement": "colocalization of clathrin and CD4", "setting": "clathrin and CD4", "value": "colocalization of clathrin and CD4 is observed"},
      {"measurement": "muscle integrity", "setting": "injected TA muscle; 80 mg/kg IP daily 5 days", "value": "normal muscle integrity"},
      {"measurement": "CD8a mRNA expression", "setting": "injected TA muscle; [2]", "value": "decrease of CD8a mRNA expression"},
      {"measurement": "SGCA transgene expression", "setting": "injected TA muscle; [2]", "value": "increase of the SGCA transgene expression"}
    ]}
  ]
}
